Our source for the IC50 values is ChEMBL document CHEMBL4340543, “Synthesis and biological evaluation of new HIV-1 protease inhibitors with purine bases as P2-ligands” (Bioorg Med Chem Lett, 2019).

By IC50 is commonly meant the point on the concentration scale where inhibition reaches its midpoint. Read a low IC50 as higher potency.

The target of this experiment is Protease (Human immunodeficiency virus 1, UniProt Q9YQ12). Kind of experiment: Inhibition of wild type HIV1 protease expressed in Escherichia coli using Arg-Glu (EDANS)-Ser-Gln-Asn-Tyr-Pro-Ile-Val-Gln-Lys(DABCYL)-Arg as substrate preincubated for 20 to 30 mins followed by substrate addition and measured for 10 mins by FRET assay.
Chain of Protease (Q9YQ12 whole entry): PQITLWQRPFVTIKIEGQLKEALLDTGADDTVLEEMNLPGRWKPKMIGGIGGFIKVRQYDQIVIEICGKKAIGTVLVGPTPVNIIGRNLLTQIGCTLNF
`CC(C)CN(C[C@@H](O)[C@H](Cc1ccccc1)NC(=O)Cn1cnc2c(N)ncnc21)S(=O)(=O)c1ccc([N+](=O)[O-])cc1` yielded an IC50 of 3580 nM.
The same measure for `CC(C)CN(C[C@@H](O)[C@H](Cc1ccccc1)NC(=O)Cn1cnc2cnc(N)nc21)S(=O)(=O)c1ccc([N+](=O)[O-])cc1`: 3680 nM; for `CC(C)CN(C[C@@H](O)[C@H](Cc1ccccc1)NC(=O)Cn1cnc2c(Cl)nc(N)nc21)S(=O)(=O)c1ccc(N)cc1`: 11700 nM; for `CC(C)CN(C[C@@H](O)[C@H](Cc1ccccc1)NC(=O)Cn1cnc2cncnc21)S(=O)(=O)c1ccc(N)cc1`: 570 nM.
The same measure for `Cc1nc2cncnc2n1CC(=O)N[C@@H](Cc1ccccc1)[C@H](O)CN(CC(C)C)S(=O)(=O)c1ccc(N)cc1`: 640 nM; for `COc1ncnc2c1ncn2CC(=O)N[C@@H](Cc1ccccc1)[C@H](O)CN(CC(C)C)S(=O)(=O)c1ccc([N+](=O)[O-])cc1`: 2600 nM; for `COc1ccc(S(=O)(=O)N(CC(C)C)C[C@@H](O)[C@H](Cc2ccccc2)NC(=O)Cn2cnc3c(N)ncnc32)cc1`: 1980 nM.
On to `CC(C)CN(C[C@@H](O)[C@H](Cc1ccccc1)NC(=O)Cn1cnc2c(Cl)ncnc21)S(=O)(=O)c1ccc(N)cc1`, for which half-maximal inhibition (IC50) was put at 7020 nM.
`CC(C)CN(C[C@@H](O)[C@H](Cc1ccccc1)NC(=O)Cn1cnc2c(O)ncnc21)S(=O)(=O)c1ccc(N)cc1` had a half-maximal inhibitory concentration (IC50) of 1810 nM.
As for `CC(C)CN(C[C@@H](O)[C@H](Cc1ccccc1)NC(=O)Cn1cnc2c(Cl)nc(N)nc21)S(=O)(=O)c1ccc([N+](=O)[O-])cc1`, the figure is 960 nM; as for `COc1nc(N)nc2c1ncn2CC(=O)N[C@@H](Cc1ccccc1)[C@H](O)CN(CC(C)C)S(=O)(=O)c1ccc([N+](=O)[O-])cc1`, 1730 nM; as for `Cc1ncnc2c1ncn2CC(=O)N[C@@H](Cc1ccccc1)[C@H](O)CN(CC(C)C)S(=O)(=O)c1ccc(N)cc1`, 3760 nM.
Consider `CC(C)CN(C[C@@H](O)[C@H](Cc1ccccc1)NC(=O)Cn1cnc2cnc(N)nc21)S(=O)(=O)c1ccc(N)cc1`, for which the IC50 turned out to be 6790 nM.
In turn, `CC(C)CN(C[C@@H](O)[C@H](Cc1ccccc1)NC(=O)Cn1cnc2c(O)ncnc21)S(=O)(=O)c1ccc([N+](=O)[O-])cc1` showed an IC50 of 2430 nM.
The molecule `Cc1nc2cncnc2n1CC(=O)N[C@@H](Cc1ccccc1)[C@H](O)CN(CC(C)C)S(=O)(=O)c1ccc([N+](=O)[O-])cc1` showed an IC50 of 570 nM.
In turn, `CC(C)CN(C[C@@H](O)[C@H](Cc1ccccc1)NC(=O)Cn1cnc2c(O)nc(N)nc21)S(=O)(=O)c1ccc([N+](=O)[O-])cc1` displayed an IC50 of 790 nM.
With `COc1ccc(S(=O)(=O)N(CC(C)C)C[C@@H](O)[C@H](Cc2ccccc2)NC(=O)Cn2c(C)nc3cncnc32)cc1`, 150 nM corresponded to half-maximal inhibition (IC50).
The same measure for `COc1ccc(S(=O)(=O)N(CC(C)C)C[C@@H](O)[C@H](Cc2ccccc2)NC(=O)Cn2cnc3cncnc32)cc1`: 240 nM; for `COc1ccc(S(=O)(=O)N(CC(C)C)C[C@@H](O)[C@H](Cc2ccccc2)NC(=O)Cn2cnc3c(OC)ncnc32)cc1`: 180 nM.
`CC(C)CN(C[C@@H](O)[C@H](Cc1ccccc1)NC(=O)Cn1cnc2c(Cl)ncnc21)S(=O)(=O)c1ccc([N+](=O)[O-])cc1`: the IC50 was found to be 310 nM.
As for `COc1ncnc2c1ncn2CC(=O)N[C@@H](Cc1ccccc1)[C@H](O)CN(CC(C)C)S(=O)(=O)c1ccc(N)cc1`, the figure is 1510 nM; as for `COc1ccc(S(=O)(=O)N(CC(C)C)C[C@@H](O)[C@H](Cc2ccccc2)NC(=O)Cn2cnc3c(OC)nc(N)nc32)cc1`, 460 nM.
As for `COc1ccc(S(=O)(=O)N(CC(C)C)C[C@@H](O)[C@H](Cc2ccccc2)NC(=O)Cn2cnc3c(O)nc(N)nc32)cc1`, the figure is 80 nM; as for `CC(C)CN(C[C@@H](O)[C@H](Cc1ccccc1)NC(=O)Cn1cnc2c(O)nc(N)nc21)S(=O)(=O)c1ccc(N)cc1`, 4730 nM.
The same measure for `COc1ccc(S(=O)(=O)N(CC(C)C)C[C@@H](O)[C@H](Cc2ccccc2)NC(=O)Cn2cnc3c(C)ncnc32)cc1`: 42 nM; for `Cc1ncnc2c1ncn2CC(=O)N[C@@H](Cc1ccccc1)[C@H](O)CN(CC(C)C)S(=O)(=O)c1ccc([N+](=O)[O-])cc1`: 2530 nM; for `COc1ccc(S(=O)(=O)N(CC(C)C)C[C@@H](O)[C@H](Cc2ccccc2)NC(=O)Cn2cnc3c(O)ncnc32)cc1`: 68 nM.
`CC(C)CN(C[C@@H](O)[C@H](Cc1ccccc1)NC(=O)Cn1cnc2cncnc21)S(=O)(=O)c1ccc([N+](=O)[O-])cc1` came in with an IC50 of 2580 nM.
The same measure for `COc1ccc(S(=O)(=O)N(CC(C)C)C[C@@H](O)[C@H](Cc2ccccc2)NC(=O)Cn2cnc3cnc(N)nc32)cc1`: 360 nM; for `COc1nc(N)nc2c1ncn2CC(=O)N[C@@H](Cc1ccccc1)[C@H](O)CN(CC(C)C)S(=O)(=O)c1ccc(N)cc1`: 190 nM; for `COc1ccc(S(=O)(=O)N(CC(C)C)C[C@@H](O)[C@H](Cc2ccccc2)NC(=O)Cn2cnc3c(Cl)ncnc32)cc1`: 43 nM.
For `CC(C)CN(C[C@@H](O)[C@H](Cc1ccccc1)NC(=O)Cn1cnc2c(N)ncnc21)S(=O)(=O)c1ccc(N)cc1`, the IC50 amounted to 1240 nM.
As for `COc1ccc(S(=O)(=O)N(CC(C)C)C[C@@H](O)[C@H](Cc2ccccc2)NC(=O)Cn2cnc3c(Cl)nc(N)nc32)cc1`, the figure is 570 nM.
